Assay results as given in patent publication US6541508B2, “Taxane prodrugs” (Nobex Corporation, priority 1999, dated 2003).
Read-outs that look alike come from different tables or passages of the source.

Key:
[1] = system: A121 ovarian carcinoma cell line; experiment: Cell growth inhibition, sulforhodamine B (SRB) assay, A121; assay type: cell-based, human; details: 72-96 h, read-out: IC50 nM (±S.E.) A121
Protocol: (§1) Cell lines were propagated as monolayers in RPMI-1640 containing 5% FCS, 5% NuSerum IV, 20 mM HEPES, 2 mM L-glutamine at 37° C. in a 5% CO2 humidified atmosphere.
(§2) Paclitaxel was solubilized in 100% DMSO. TX-001 and 002 were solubilized in sterile H2O acidified with 10% 1 N HCl. For the first experiment, 4.0 mM stocks of TX-001 and 002 were prepared. Solutions of TX-001 and TX-002 contained clear needle-like and cast-like precipitates and were fairly viscous (Experiment 1). For the second experiment (Experiment 2), less concentrated stock solutions (0.4 mM) of each compound were prepared in sterile H2O acidified with 10% 1 N HCl. The same type of precipitates were noted, however neither solution was viscous. All compounds were further diluted in RPMI-1640 containing 10 mM HEPES.
(§3) Assessment of cell growth inhibition was determined in 96 well microtiter plates according to the method of Skehan et al., “New Colorimetric Cytotoxicity Assay for Anticancer-Drug Screening, Articles 82(13):1107-1112 (1990). Briefly, cells were plated with 400-1800 cells/well in 96 well plates and incubated at 37° C. 15-18 hr prior to drug addition to allow for cell attachment. Each cell line was exposed to 12 concentrations of compound (a 6 log range), 5 replicate data points per compound concentration. […] Assays were terminated with 100 μl of ice-cold 50% TCA. […] Optical density was measured at 570 nm. […]

[2] = system: HT-1080/DR4 doxorubicin selected MDR (MRP/LRP phenotype) fibrosarcoma cell line; experiment: Cell growth inhibition, SRB assay, HT-1080-DR4; assay type: cell-based, human; details: for IC50: 72-96 h, read-out: IC50 nM (±S.E.) HT-1080-DR4; for Resistance ratio (IC50 resistant cell line/IC50 parental line): MRP/LRP expressing HT1080/DR4 vs HT-1080
Protocol: as §1, §2
Assessment of cell growth inhibition was determined in 96 well microtiter plates according to the method of Skehan et al., “New Colorimetric Cytotoxicity Assay for Anticancer-Drug Screening, Articles 82(13):1107-1112 (1990). Briefly, cells were plated with 400-1800 cells/well in 96 well plates and incubated at 37° C. 15-18 hr prior to drug addition to allow for cell attachment. Each cell line was exposed to 12 concentrations of compound (a 6 log range), 5 replicate data points per compound concentration. […] Assays were terminated with 100 μl of ice-cold 50% TCA. After 1 hr at 4° C., plates were washed 5 times with tap water to remove TCA, low-molecular-weight metabolites and serum proteins. 50 μl of 0.4% sulforhodamine B (SRB) was added to each well. Following a five minute incubation at room temperature, plates were rinsed 5 times with 0.1% acetic acid and air dried. Bound dye was solubilized with 10 mM Tris Base (pH 10.5) for 5 min on a gyratory shaker. Optical density was measured at 570 nm.
Data were fit with the Sigmoid-Emax concentration-effect model (N. H. G. Holford and L. B. Scheiner, “Understanding the dose-effect relationship: Clinical applications of pharmacokinetic-pharmacodynamic models,” Clin. Pharmacokin. 6:429-453 (1981)) with nonlinear regression, weighted by the reciprocal of the square of the predicted response.

[3] = system: MDA435/LCC6-WT breast carcinoma cell line; experiment: Cell growth inhibition, SRB assay, LCC6-WT; assay type: cell-based, human; details: read-out: IC50 nM (±S.E.) LCC6-WT
Protocol: as §1, §2
Assessment of cell growth inhibition was determined in 96 well microtiter plates according to the method of Skehan et al., “New Colorimetric Cytotoxicity Assay for Anticancer-Drug Screening, Articles 82(13):1107-1112 (1990). Briefly, cells were plated with 400-1800 cells/well in 96 well plates and incubated at 37° C. 15-18 hr prior to drug addition to allow for cell attachment. Each cell line was exposed to 12 concentrations of compound (a 6 log range), 5 replicate data points per compound concentration. […] Assays were terminated with 100 μl of ice-cold 50% TCA. After 1 hr at 4° C., plates were washed 5 times with tap water to remove TCA, low-molecular-weight metabolites and serum proteins. 50 μl of 0.4% sulforhodamine B (SRB) was added to each well. Following a five minute incubation at room temperature, plates were rinsed 5 times with 0.1% acetic acid and air dried. Bound dye was solubilized with 10 mM Tris Base (pH 10.5) for 5 min on a gyratory shaker. Optical density was measured at 570 nm. […]

[4] = system: HT-1080 fibrosarcoma cell line; experiment: Cell growth inhibition, SRB assay, HT-1080; assay type: cell-based, human; details: 72-96 h, read-out: IC50 nM (±S.E.) HT-1080
Protocol: as §1, §2, §3

[5] = Stability of trifluoroacetate product fraction solutions on storage; assay type: physicochemical; details: preparative HPLC fraction solutions, initially 98.8% average purity; 8° C. for 16 days; analytical HPLC
[6] = system: LCC6-MDR1 Pgp transfected breast carcinoma cell line; experiment: Cell growth inhibition, SRB assay, LCC6-MDR; details: LCC6-MDR1 variant line overexpressing Pgp vs LCC6-WT
Protocol: as §1, §2, §3

[7] = system: paclitaxel-resistant cells; details: cited from earlier work
[8] = system: tubulin; details: cited from earlier work
[9] = Experiment 1, TX-001/TX-002 from 4.0 mM stocks
[10] = Experiment 2, TX-001/TX-002 from 0.4 mM stocks

2′-Succinamidyl-PEG2-amine-paclitaxel Acetate [Compound 4]
IC50 [1, 9]: 13 ± 0.5 nM
IC50 [1, 10]: 37 ± 1.2 nM
IC50 [2, 9]: 8.9 ± 0.4 nM
IC50 [2, 10]: 36 ± 1.5 nM
IC50 ([3]; 4.0 mM stock solutions stored at 4° C. for 7 days): 2.7 ± 0.4 nM
IC50 ([3]; Experiment 1, TX-001/TX-002 from 4.0 mM stocks, 72-96 h): 4.9 ± 0.5 nM
IC50 ([3]; Experiment 2, TX-001/TX-002 from 0.4 mM stocks, 72-96 h): 13 ± 0.5 nM
IC50 [4, 9]: 4.5 ± 0.4 nM
IC50 [4, 10]: 19 ± 0.7 nM

2′-Succinamidyl-PEG2-amine-paclitaxel Trifluoroacetate [Compound 3]
average purity after storage [5]: 97.4%

CC(=O)O.CC(=O)OC1C(=O)C2(C)C(O)CC3OCC3(OC(C)=O)C2C(OC(=O)c2ccccc2)C2(O)CC(OC(=O)C(OC(=O)CCCC(=O)NCCOCCOCCN)C(NC(=O)c3ccccc3)c3ccccc3)C(C)=C1C2(C)C (stereo not shown) [Compound 5, 2′-Glutaramidyl-PEG2-amine-paclitaxel acetate]
Resistance ratio (IC50 resistant cell line/IC50 parental line) [2]: 1.1-1.5 fold
Resistance ratio (IC50 resistant cell line/IC50 parental line) [6]: 47-60 fold

CC(=O)O[C@@]12CO[C@@H]1C[C@H](O)[C@@]1(C)C(=O)[C@H](O)C3=C(C)[C@@H](OC(=O)[C@H](O)[C@@H](NC(=O)OC(C)(C)C)c4ccccc4)C[C@@](O)([C@@H](OC(=O)c4ccccc4)[C@H]21)C3(C)C [Docetaxel, docetaxel]
activity relative to paclitaxel [7]: about five times as active as paclitaxel

CC(=O)O[C@H]1C(=O)[C@@]2(C)[C@H]([C@H](OC(=O)c3ccccc3)[C@]3(O)C[C@H](OC(=O)[C@H](O)[C@@H](NC(=O)c4ccccc4)c4ccccc4)C(C)=C1C3(C)C)[C@]1(OC(C)=O)CO[C@@H]1C[C@@H]2O [Paclitaxel, reference compound]
Resistance ratio (IC50 resistant cell line/IC50 parental line) [2]: 1.1-1.4 fold
Resistance ratio (IC50 resistant cell line/IC50 parental line) [6]: 65-92 fold

A-nor-paclitaxel
tubulin-assembly activity relative to paclitaxel [8]: only three times less than that of paclitaxel
